Reference: patent US6720313B1, “Biocidal composition containing phosphite ions” (Mattersmiths Holdings Limited, priority 1998, dated 2004)
≈ marks a conversion by molar mass, not a printed value. Like-named read-outs stand apart in the source and are kept apart here.

Assays:
[1] = metal oxinates; cited from earlier work
[2] = Method: These are prepared by addition of stoicheiometric quantities of precursors of the compounds concerned to produce the salt desired.
[3] = solubility studies of oxine copper using the invention; format: physicochemical
Excerpt: We have carried out many solubility studies using the technology of this invention. For example, we are able to produce solutions stable at ambient temperature of oxine copper at concentrations greater than 100 grams per 200 mls of final product. Because the specific gravity of such solutions is approximately […] this yields a solution of oxine copper of 50 per cent weight/volume or more. This concentration is commercially viable to use and eliminates many of the potentially toxic or flammable formulation aids used in prior art solubilisation of oxine copper.

[4] = cited from earlier work
[5] = precipitation of solubilised biocides on addition of a higher pH solution; format: physicochemical; settings: aqueous solutions, pH raised to greater than 5
Excerpt: We carried out several studies, some in aqueous systems and others on wood subsequent to the biocide formulation being applied, wherein we applied a further solution with higher pH to increase the pH to greater than 5.

[6] = acids including phosphorous acid; cited from earlier work
[7] = system: natural fungal inoculum on mini discs of Pinus radiata; assay: mini disc trial of fungicidal efficacy; format: cell-based; settings: compared with untreated control
Method: For example, a mini disc trial, typically used to assess formulation efficacy, was used to establish relative efficacy of various formulations. Included in the trial were formulations using both phosphoric acid and phosphorous acid.
These examples were then diluted in water to produce stable solutions and then tested against a natural fungal inoculum on mini discs of Pinus radiata to determine fungicidal efficacy. The following table, Table 5, illustrates the relative performance of each biocide after 3 weeks in an incubator.
These formulations were then diluted and tested using the mini disc method. Also included was an industry standard based on the formulation of U.S. Pat. No. 4,950,685 coded in the trial as KC1 and listed in Table 7.
The formulations were then tested using a mini disc trial with results as disclosed in Table 9.

[8] = format: physicochemical
Excerpt: We decreased the pH by addition of phosphorous acid.
We have achieved solubility of fenpropimorph of as much as 10% by weight. This high level of solubility remains when that active is also the presence of 10-20% of other biocides.

[9] = cited from earlier work; remark: listed apart in the source

Compound	pH complete precipitation [1]	pH initial precipitation [1]	other results
[Cd] [Cadmium]	5.5-13.2	4.5	
[Mg] [Magnesium]	>8.7	7.0	
[Co+2].[O-]c1cccc2cccnc12.[O-]c1cccc2cccnc12 [Cobalt]	4.9-11.6	3.6	pH for dissolution ([2]; transition metal phosphites): <4.5
copper 8-hydroxyquinolinolate [oxine copper]	greater than 3.3		solution concentration weight/volume ([3]; ambient temperature): ≥ 50 per cent weight/volume; concentration of solutions stable at ambient temperature ([3]; phosphorous acid solution): greater than 100 grams per 200 mls of final product; Oral LD50 Rat ([4]; in vivo, po): 10,000 mg/kg; effect of adding a solution of higher pH [5]: immediate precipitation
[Mo] [Molybdenum]	3.6-7.3	2.0	
[O-]c1cccc2cccnc12.[O-]c1cccc2cccnc12.[Zn+2] [Zinc]	>4.4	3.3	
Titanium	4.8-8.6	3.6	
phosethyl-Al			stability to acids [6]: decomposed by acids
Bismuth	5.2-9.4	3.7	
[Ni+2].[O-]c1cccc2cccnc12.[O-]c1cccc2cccnc12 [Nickel]	4.6-10.0	3.5	pH for dissolution [2]: <4.5
copper	>3.3	3.0	Solubility at pH = 7 [2]: Insoluble; pH for dissolution ([2]; transition metal phosphites): <3.5
[Ca] [Calcium]	9.2-12.7	6.8	
[Al+3].[O-]c1cccc2cccnc12.[O-]c1cccc2cccnc12.[O-]c1cccc2cccnc12 [Aluminium]	4.7-9.8	2.9	
maneb			stability to acids [6]: decomposed by acids
[Mn+2] [Manganese]	5.9-9.5	4.3	Solubility at pH = 7 [2]: Insoluble; pH for dissolution ([2]; transition metal phosphites): <4.5
OP(O)O [phosphorous acid]			fungicidal activity of phosphorous acid alone [7]: marginal improvement over the untreated control
COC(=O)Nc1nc2ccccc2[nH]1 [Carbendazim, methyl benzimidazoyl carbamate]			effect of adding a solution of higher pH [5]: immediate precipitation
mancozeb			stability to acids [6]: decomposed by acids
Tungsten	5.0-5.7	3.5	
[Fe+3].[O-]c1cccc2cccnc12.[O-]c1cccc2cccnc12.[O-]c1cccc2cccnc12 [Iron]	4.1-11.2	2.5	pH for dissolution ([2]; transition metal phosphites): <3.5; Solubility at pH = 7 ([2]; transition metal phosphites, pH = 7): Insoluble
arsenic			LD50 Rat [4]: 15 to 293 mg/kg
CC(Cc1ccc(C(C)(C)C)cc1)CN1C[C@@H](C)O[C@@H](C)C1 (some centres unmarked) [fenpropimorph, dimethylethyl phenyl methylpropyl dimethylmorpholine]			solubility achieved [8]: ≤ 10 % by weight; Solubility ([9]; pH 4.4): 7300 µg/mL (≈ 24100 µM); Solubility ([9]; pH 7): 4.3 µg/mL (≈ 14.2 µM); Solubility ([9]; pH 9): 3.5 µg/mL (≈ 11.5 µM)
[O-]c1cccc2cccnc12.[O-]c1cccc2cccnc12.[Pb+2] [Lead]	8.4-12.3	4.8	
